Assay results as given in US8785488B2 (Exelixis Patent Company LLC, priority 2009, dated 2014).

target: T1, human TGR5 (h-TGR5) (Homo sapiens, UniProt Q8TDU6); assay: TGR5/CRE-Luciferiase Assay (HEK 293 hTGR5/CRE-Luc cells); format: cell-based; conditions: h-TGR5 CRE-Luc EC50, Table 1; read-out: CRE-Luc (EC50)
T1 construct: expressed in transfected cells
T1 sequence (Q8TDU6 1-330): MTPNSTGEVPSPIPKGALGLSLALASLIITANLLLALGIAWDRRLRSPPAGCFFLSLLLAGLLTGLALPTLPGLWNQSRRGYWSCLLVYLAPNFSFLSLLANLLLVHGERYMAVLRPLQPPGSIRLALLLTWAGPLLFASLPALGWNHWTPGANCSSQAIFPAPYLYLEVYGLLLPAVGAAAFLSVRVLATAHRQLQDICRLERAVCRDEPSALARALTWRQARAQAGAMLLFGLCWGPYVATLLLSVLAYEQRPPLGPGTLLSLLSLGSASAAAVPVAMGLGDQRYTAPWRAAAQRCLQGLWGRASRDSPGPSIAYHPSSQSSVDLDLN
How it was run: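 HEK293 cells stably carrying hTGR5 and a CRE-luciferase reporter were exposed to serially diluted compounds (diluted in DMEM with 5% DMSO) for 6 h. Cells were then lysed in luciferase buffer, luminescence was read, and EC50 values were derived from dose-response curves.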

Compound | EC50 [nM]
CC(C)(c1ccc(Cl)c(Cl)c1)c1cnc(SCc2ccc(C(N)=O)cc2Cl)n1-c1ccc(F)cc1 [3-chloro-4-[({5-[1-(3,4-dichlorophenyl)-1-methylethyl]-1-(4-fluorophenyl)-1H-imidazol-2-yl}thio)methyl]benzamide] | 100 to 1000
CC(C)(c1ccc(Cl)c(Cl)c1)c1cnc(SCc2ccc(C(=N)N)cc2Cl)n1-c1ccc(F)cc1 [3-chloro-4-[({5-[1-(3,4-dichlorophenyl)-1-methylethyl]-1-(4-fluorophenyl)-1H-imidazol-2-yl}thio)methyl]benzenecarboximidamide] | 100 to 1000
CC(C)(c1ccc(Cl)c(Cl)c1)c1cnc(SCc2ccc(C#N)cc2Cl)n1-c1ccc(F)cc1 [3-chloro-4-[({5-[1-(3,4-dichlorophenyl)-1-methylethyl]-1-(4-fluorophenyl)-1H-imidazol-2-yl}thio)methyl]benzonitrile] | 100 to 1000
CC(C)(c1ccc(F)c(F)c1)c1cnc(SCc2c(F)cc(C(=O)O)cc2Cl)n1-c1ccc(F)cc1 [3-chloro-4-[({5-[1-(3,4-difluorophenyl)-1-methylethyl]-1-(4-fluorophenyl)-1H-imidazol-2-yl}thio)methyl]-5-fluorobenzoic acid] | 100 to 1000
COc1cc(-n2c(C(C)(C)c3ccc(Cl)c(OC)c3)cnc2SCc2ccc(S(N)(=O)=O)cc2Cl)ccc1F [3-chloro-4-{[(5-{1-[4-chloro-3-(methyloxy)phenyl]-1-methylethyl}-1-[4-fluoro-3-(methyloxy)phenyl]-1H-imidazol-2-yl)thio]methyl}benzenesulfonamide] | < 100
CC(C)(c1ccc(F)c(F)c1)c1cnc(SCC2CCN(CC(O)CO)CC2)n1-c1ccc(F)cc1 (centres unmarked) [3-{4-[({5-[1-(3,4-difluorophenyl)-1-methylethyl]-1-(4-fluorophenyl)-1H-imidazol-2-yl}thio)methyl]piperidin-1-yl}propane-1,2-diol] | 1000 to 10000
CC(C)(c1ccc(Cl)c(Cl)c1)c1cnc(C(F)CC2CCN(S(C)(=O)=O)CC2)n1-c1ccc(F)cc1 (centres unmarked) [4-(2-{5-[1-(3,4-dichlorophenyl)-1-methylethyl]-1-(4-fluorophenyl)-1H-imidazol-2-yl}-2-fluoroethyl)-1-(methylsulfonyl)piperidine] | 1000 to 10000
CC(C)(c1ccc(S(C)(=O)=O)cc1)c1cnc(SCc2c(F)cc(C(=O)O)cc2F)n1-c1ccc(F)c(F)c1 [4-({[1-(3,4-difluorophenyl)-5-{1-methyl-1-[4-(methylsulfonyl)phenyl]ethyl}-1H-imidazol-2-yl]thio}methyl)-3,5-difluorobenzoic acid] | 1000 to 10000
COc1c(Cl)cc(C(C)(C)c2cnc(SCc3ccc(S(N)(=O)=O)cc3F)n2-c2ccc(F)cc2)cc1Cl [4-({[5-{1-[3,5-dichloro-4-(methyloxy)phenyl]-1-methylethyl}-1-(4-fluorophenyl)-1H-imidazol-2-yl]thio}methyl)-3-fluorobenzenesulfonamide] | < 100
CC(C)(c1ccc(Cl)c(S(N)(=O)=O)c1)c1cnc(SCc2c(F)cc(C(=O)O)cc2F)n1-c1ccc(F)cc1 [4-({[5-{1-[3-(aminosulfonyl)-4-chlorophenyl]-1-methylethyl}-1-(4-fluorophenyl)-1H-imidazol-2-yl]thio}methyl)-3,5-difluorobenzoic acid] | 1000 to 10000
COc1ccc(C(C)(C)c2cnc(SCc3ccc(C(=O)O)cc3F)n2-c2ccc(F)cc2)cc1Cl [4-({[5-{1-[3-chloro-4-(methyloxy)phenyl]-1-methylethyl}-1-(4-fluorophenyl)-1H-imidazol-2-yl]thio}methyl)-3-fluorobenzoic acid] | 100 to 1000
CC(C)(c1ccc(Cl)c(Cl)c1)c1cnc(SCc2ccc(F)cc2Cl)n1-c1ccc(N2CCOCC2)cc1 [4-[4-(2-{[(2-chloro-4-fluorophenyl)methyl]thio}-5-[1-(3,4-dichlorophenyl)-1-methylethyl]-1H-imidazol-1-yl)phenyl]morpholine] | 1000 to 10000
CC(C)(c1ccc(Cl)c(Cl)c1)c1cnc(SCC2CCN(c3nnn[nH]3)CC2)n1-c1ccc(F)c(F)c1 [4-[({5-[1-(3,4-dichlorophenyl)-1-methylethyl]-1-(3,4-difluorophenyl)-1H-imidazol-2-yl}thio)methyl]-1-(1H-tetrazol-5-yl)piperidine] | < 100
CC(C)(c1ccc(Cl)c(Cl)c1)c1cnc(SCC2CCN(S(C)(=O)=O)CC2)n1-c1ccc(F)c(F)c1 [4-[({5-[1-(3,4-dichlorophenyl)-1-methylethyl]-1-(3,4-difluorophenyl)-1H-imidazol-2-yl}thio)methyl]-1-(methylsulfonyl)piperidine] | < 100
CC(C)(c1ccc(Cl)c(Cl)c1)c1cnc(COc2ccnc3ccccc23)n1-c1ccc(F)cc1 [4-[({5-[1-(3,4-dichlorophenyl)-1-methylethyl]-1-(4-fluorophenyl)-1H-imidazol-2-yl}methyl)oxy]quinoline] | 1000 to 10000
CC(C)(c1ccc(Cl)c(Cl)c1)c1cnc(OCC2CCN(c3nnn[nH]3)CC2)n1-c1ccc(F)cc1 [4-[({5-[1-(3,4-dichlorophenyl)-1-methylethyl]-1-(4-fluorophenyl)-1H-imidazol-2-yl}oxy)methyl]-1-(1H-tetrazol-5-yl)piperidine] | 1000 to 10000
CC(C)(c1ccc(Cl)c(Cl)c1)c1cnc(SCC2CCN(c3ccc(F)cc3)CC2)n1-c1ccc(F)cc1 [4-[({5-[1-(3,4-dichlorophenyl)-1-methylethyl]-1-(4-fluorophenyl)-1H-imidazol-2-yl}thio)methyl]-1-(4-fluorophenyl)piperidine] | 1000 to 10000
CC(C)(c1ccc(Cl)c(Cl)c1)c1cnc(SCc2ccc(C(N)=O)c(F)c2)n1-c1ccc(F)cc1 [4-[({5-[1-(3,4-dichlorophenyl)-1-methylethyl]-1-(4-fluorophenyl)-1H-imidazol-2-yl}thio)methyl]-2-fluorobenzamide] | 100 to 1000
CC(C)(c1ccc(Cl)c(Cl)c1)c1cnc(SCc2ccc(C(=O)O)c(F)c2)n1-c1ccc(F)cc1 [4-[({5-[1-(3,4-dichlorophenyl)-1-methylethyl]-1-(4-fluorophenyl)-1H-imidazol-2-yl}thio)methyl]-2-fluorobenzoic acid] | 100 to 1000
CC(C)(c1ccc(Cl)c(Cl)c1)c1cnc(SCc2c(F)cc(C#N)cc2F)n1-c1ccc(F)cc1 [4-[({5-[1-(3,4-dichlorophenyl)-1-methylethyl]-1-(4-fluorophenyl)-1H-imidazol-2-yl}thio)methyl]-3,5-difluorobenzonitrile] | < 100
CC(C)(c1ccc(Cl)c(Cl)c1)c1cnc(SCc2ccc(C(=O)NCC(F)(F)F)cc2F)n1-c1ccc(F)cc1 [4-[({5-[1-(3,4-dichlorophenyl)-1-methylethyl]-1-(4-fluorophenyl)-1H-imidazol-2-yl}thio)methyl]-3-fluoro-N-(2,2,2-trifluoroethyl)benzamide] | 100 to 1000
CC(C)(c1ccc(Cl)c(Cl)c1)c1cnc(SCc2ccc(C(=O)NCCN3CCOCC3)cc2F)n1-c1ccc(F)cc1 [4-[({5-[1-(3,4-dichlorophenyl)-1-methylethyl]-1-(4-fluorophenyl)-1H-imidazol-2-yl}thio)methyl]-3-fluoro-N-(2-morpholin-4-ylethyl)benzamide] | 100 to 1000
COCCNC(=O)c1ccc(CSc2ncc(C(C)(C)c3ccc(Cl)c(Cl)c3)n2-c2ccc(F)cc2)c(F)c1 [4-[({5-[1-(3,4-dichlorophenyl)-1-methylethyl]-1-(4-fluorophenyl)-1H-imidazol-2-yl}thio)methyl]-3-fluoro-N-[2-(methyloxy)ethyl]benzamide] | 100 to 1000
